Assay results from patent US9617282B2, “Macrocyclic compounds as IRAK4 inhibitors for the treatment of inflammatory diseases” (BIOGEN MA INC., priority 2013, dated 2017).
pIC50: −log10 of the molar value.

Molecular target: IRAK4 (Homo sapiens (Human), UniProt Q9NWZ3)
Experiment: IRAK-4 biochemical kinase assay, AlphaScreen format
Conditions: 1 nM IRAK4, 1.6 μM peptide, 10 μM ATP, 3.5 h at RT
Experimental: The biochemical assay is in a AlphaScreen format. The kinase reaction is based on the IRAK-4 phosphorylation of a biotin labeled peptide. The phosphopeptide is incubated with anti-phosphothreonine antibody as well as streptavidin- and protein A-coated beads. Binding of the protein-A coated beads to the antibody and the streptavidin beads to the peptide, leads to an energy transfer from one bead to the other, ultimately producing a luminescent/fluorescent signal.

IRAK4, sequence (Q9NWZ3 whole entry, species assumed): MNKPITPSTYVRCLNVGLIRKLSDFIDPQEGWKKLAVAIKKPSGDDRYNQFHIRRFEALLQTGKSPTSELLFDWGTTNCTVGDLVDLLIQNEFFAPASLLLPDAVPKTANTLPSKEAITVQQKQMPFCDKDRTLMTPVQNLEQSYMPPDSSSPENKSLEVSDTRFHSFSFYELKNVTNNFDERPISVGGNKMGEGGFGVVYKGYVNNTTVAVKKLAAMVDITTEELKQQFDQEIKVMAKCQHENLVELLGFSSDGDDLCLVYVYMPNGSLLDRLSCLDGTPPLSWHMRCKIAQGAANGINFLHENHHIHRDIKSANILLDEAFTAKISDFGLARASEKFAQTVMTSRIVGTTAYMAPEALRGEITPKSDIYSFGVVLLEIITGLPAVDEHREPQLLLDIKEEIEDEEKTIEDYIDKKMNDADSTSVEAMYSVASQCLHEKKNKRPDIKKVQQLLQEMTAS

SMILES	pIC50 (class symbols)	pIC50 (given as numeric bound)
CC1CCCC(C)Oc2ccccc2NC(=O)c2coc(n2)-c2ccnc(c2)N1 (stereo not drawn) [Example 71]	> 7.00	–
CN1CCOCCNC(=O)c2nn(C3CCOCC3)cc2NC(=O)c2csc(n2)-c2ccnc1c2 [Example 219]	> 7.00	–
O=C1Nc2cn(C3CCOCC3)nc2C(=O)NCCN(C(=O)C2CC2)CCCc2cc(ccn2)-c2nc1cs2 [Example 184]	> 7.00	–
O=C1Nc2cn(C3CCOCC3)nc2C(=O)NCCOCCOc2cc(ccn2)-c2cccc1c2 [Example 210]	> 7.00	–
CN1CCCOc2cnccc2-c2nc(c[nH]2)C1=O [Example 101]	–	< 5.00
NC(=O)CN1CCCc2cc(ccn2)-c2nc(cs2)C(=O)Nc2cn(C3CCOCC3)nc2C(=O)NCC1 [Example 175]	> 6.00	–
O=C1Nc2ccccc2OCCCCCCn2cc(cn2)-c2nc1cs2 [Example 72]	> 7.00	–
O=C1Nc2cn(C3CCOCC3)nc2C(=O)NC(CCO)C(=O)NCCCc2cc(ccn2)-c2nc1cs2 (stereo not drawn) [Example 198]	> 5.00	–
Cn1cc2c(n1)C(=O)NCCOCCOc1cc(ccn1)-c1cccc(c1)C(=O)N2 [Example 209]	> 6.00	–
O=C1Nc2cn(C3CCOCC3)nc2C(=O)NCCOCCOc2cc(ccn2)-c2cc1ccn2 [Example 212]	> 6.00	–
CCn1cc(N2CCCCCCOc3cc(ccn3)-c3nc(co3)C2=O)cn1 [Compound 50]	–	< 5.00
O=C(NCCN1CCOCC1)c1ccc2c(c1)NC(=O)c1csc(n1)-c1ccnc(c1)NCCCCCO2 [Compound 19]	> 7.00	–
CN1CCC(CCn2ncc3c2C(=O)NCCOCCOc2cc(ccn2)-c2nc(cs2)C(=O)N3)CC1 [Example 156]	> 5.00	–
CCC(=O)N1CCCc2cc(ccn2)-c2nc(cs2)C(=O)Nc2cn(C3CCOCC3)nc2C(=O)NCC1 [Example 183]	> 7.00	–
O=C1NCCCCCCCCNc2cc(ccn2)-c2nc1co2 [Example 68]	> 7.00	–
CC1CCCCNc2cc(ccn2)-c2nc(co2)C(=O)Nc2ccccc2O1 (stereo not drawn) [Example 69]	> 7.00	–
Cn1cc2c(n1)C(=O)NCCCCCn1cc(cn1)-c1nc(co1)C(=O)N2 [Compound 41]	> 6.00	–

SMILES	pIC50 (class symbols)	pIC50 (given as numeric bound)
O=C1Nc2ccccc2OC2CCC(CCc3cc(ccn3)-c3nc1co3)CC2 [Example 81]	> 7.00	–
NCCC(=O)N1CCCc2cc(ccn2)-c2nc(cs2)C(=O)Nc2cn(C3CCOCC3)nc2C(=O)NCC1 [Example 178]	> 7.00	–
Cn1cc2c(n1)C(=O)NCCCCOc1cnccc1-c1nc(co1)C(=O)N2 [Example 62]	> 6.00	–
O=C1Nc2cn(C3CCOCC3)nc2C(=O)NCCCCCn2cc(cn2)-c2nc1co2 [Compound 42]	> 6.00	–
Cn1cc2c(n1)C(=O)NCCOCCOc1cc(ccn1)C1=CC=C(S1)C(=O)N2 [Example 205]	–	< 5.00
O=C1c2coc(n2)-c2ccnc(c2)OCCCCCCN1CCN1CCCCC1 [Compound 56]	–	< 5.00
COC(=O)c1ccc2c(c1)NC(=O)c1csc(n1)-c1ccnc(c1)NCCCCCO2 [Compound 14]	–	< 5.00
O=C1Nc2ccccc2OCCCCCNc2cc(ccn2)-c2nc1cs2 [Compound 13]	> 7.00	–
O=C1c2coc(n2)-c2ccnc(c2)OCCCCCCN1CCCN1CCCCC1 [Compound 57]	–	< 5.00
NC(=O)CCC1NC(=O)c2nn(C3CCOCC3)cc2NC(=O)c2csc(n2)-c2ccnc(c2)CCCNC1=O (stereo not drawn) [Example 195]	> 6.00	–
Cn1cc(N2CCCCCOc3cnccc3-c3nc(co3)C2=O)cn1 [Compound 61]	> 6.00	–
NC(=O)CCN1CCCc2cc(ccn2)-c2nc(cs2)C(=O)Nc2cn(C3CCOCC3)nc2C(=O)NCC1 [Example 181]	> 7.00	–
O=C1CCc2cc(ccn2)-c2nc(cs2)C(=O)Nc2cn(C3CCOCC3)nc2C(=O)NCCN1 [Example 225]	> 7.00	–
O=C1Nc2cc(Br)ccc2OCCCCCNc2cc(ccn2)-c2nc1cs2 [Example 73]	> 7.00	–
O=C(O)CCN1CCCc2cc(ccn2)-c2nc(cs2)C(=O)Nc2cn(C3CCOCC3)nc2C(=O)NCC1 [Example 179]	> 7.00	–
CNC(=O)c1ccc2c(c1)NC(=O)c1csc(n1)-c1ccnc(c1)NCCCCCO2 [Compound 17]	> 7.00	–
